ChEMBL document CHEMBL4507268 (2021)

What was measured:
[1] = target: Mitogen-activated protein kinase 8 (Homo sapiens) (UniProt P45983); conditions: Compound concentration 1000.0 nM
[2] = target: Leukocyte tyrosine kinase receptor (Homo sapiens) (UniProt P29376); conditions: Compound concentration 1000.0 nM
[3] = target: Serine/threonine-protein kinase PAK 6 (Homo sapiens) (UniProt Q9NQU5); conditions: Compound concentration 1000.0 nM
[4] = target: Serine/threonine-protein kinase Nek4 (Homo sapiens) (UniProt P51957); conditions: Compound concentration 1000.0 nM
[5] = target: Serine/threonine-protein kinase PAK 2 (Homo sapiens) (UniProt Q13177); conditions: Compound concentration 1000.0 nM
[6] = target: 5-hydroxytryptamine receptor 7 (Homo sapiens) (UniProt P34969); conditions: Compound concentration 10.0 uM
[7] = target: Casein kinase I isoform gamma-2 (Homo sapiens) (UniProt P78368); conditions: Compound concentration 1000.0 nM
[8] = target: T1, Serine/threonine-protein kinase DCLK3 (Homo sapiens) (UniProt Q9C098); conditions: Compound concentration 1000.0 nM
T1 sequence (whole entry): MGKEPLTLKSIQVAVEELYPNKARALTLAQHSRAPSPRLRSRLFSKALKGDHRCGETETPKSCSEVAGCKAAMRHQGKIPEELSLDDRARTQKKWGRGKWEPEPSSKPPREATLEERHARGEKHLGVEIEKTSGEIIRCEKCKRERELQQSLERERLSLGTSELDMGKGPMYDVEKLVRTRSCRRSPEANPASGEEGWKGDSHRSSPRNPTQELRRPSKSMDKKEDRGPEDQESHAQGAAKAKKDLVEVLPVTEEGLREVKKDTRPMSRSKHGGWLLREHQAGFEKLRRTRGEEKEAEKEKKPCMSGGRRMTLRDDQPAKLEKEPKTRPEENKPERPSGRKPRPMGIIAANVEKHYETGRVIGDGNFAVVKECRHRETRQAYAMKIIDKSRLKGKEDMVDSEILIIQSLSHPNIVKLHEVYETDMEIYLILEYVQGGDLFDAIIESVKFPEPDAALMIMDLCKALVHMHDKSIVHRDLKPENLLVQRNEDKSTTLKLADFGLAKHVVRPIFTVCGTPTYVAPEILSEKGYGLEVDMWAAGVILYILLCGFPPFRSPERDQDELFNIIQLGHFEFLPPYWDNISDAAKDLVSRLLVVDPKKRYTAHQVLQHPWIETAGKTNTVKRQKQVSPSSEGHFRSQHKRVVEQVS

[9] = target: Insulin-like growth factor 1 receptor (Homo sapiens) (UniProt P08069); conditions: Compound concentration 1000.0 nM
BT-474 = test: Proliferation assay: BT-474 (breast cancer); type: functional, cell-based; conditions: Homo sapiens
[10] = test system: Tyrosine-protein kinase ABL1 (Homo sapiens), P00519 [Q252H]; conditions: Compound concentration 1000.0 nM
[11] = target: Mu-type opioid receptor (Homo sapiens) (UniProt P35372); conditions: Compound concentration 10.0 uM
[12] = target: Protein kinase C delta type (Homo sapiens) (UniProt Q05655); conditions: Compound concentration 1000.0 nM
[13] = target: T2, Dual specificity tyrosine-phosphorylation-regulated kinase 2 (Homo sapiens) (UniProt Q92630); conditions: Compound concentration 1000.0 nM
T2 sequence (whole entry): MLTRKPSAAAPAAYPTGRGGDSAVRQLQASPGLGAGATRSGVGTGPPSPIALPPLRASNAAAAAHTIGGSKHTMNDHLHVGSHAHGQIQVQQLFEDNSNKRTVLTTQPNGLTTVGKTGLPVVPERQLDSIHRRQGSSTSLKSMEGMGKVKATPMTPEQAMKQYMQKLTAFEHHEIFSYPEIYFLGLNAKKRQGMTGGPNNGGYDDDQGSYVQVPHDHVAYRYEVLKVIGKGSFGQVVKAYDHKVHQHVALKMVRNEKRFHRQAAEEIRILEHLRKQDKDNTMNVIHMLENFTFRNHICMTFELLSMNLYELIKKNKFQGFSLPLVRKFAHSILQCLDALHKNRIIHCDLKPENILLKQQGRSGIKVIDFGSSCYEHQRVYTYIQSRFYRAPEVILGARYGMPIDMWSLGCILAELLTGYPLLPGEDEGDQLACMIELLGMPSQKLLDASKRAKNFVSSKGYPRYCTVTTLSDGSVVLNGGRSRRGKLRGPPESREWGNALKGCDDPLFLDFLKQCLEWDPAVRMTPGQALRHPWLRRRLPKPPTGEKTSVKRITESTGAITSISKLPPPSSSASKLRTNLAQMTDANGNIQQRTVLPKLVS

[14] = target: Tyrosine-protein kinase Lyn (Homo sapiens) (UniProt P07948); conditions: Compound concentration 1000.0 nM
[15] = target: Serine/threonine-protein kinase N2 (Homo sapiens) (UniProt Q16513); conditions: Compound concentration 1000.0 nM
[16] = test system: Mast/stem cell growth factor receptor Kit (Homo sapiens), P10721 [D816V]; conditions: Compound concentration 1000.0 nM
[17] = target: Cyclin-dependent kinase 3 (Homo sapiens) (UniProt Q00526); conditions: Compound concentration 1000.0 nM
[18] = target: Calcium/calmodulin-dependent protein kinase kinase 1 (Homo sapiens) (UniProt Q8N5S9); conditions: Compound concentration 1000.0 nM
[19] = target: Hormonally up-regulated neu tumor-associated kinase (Homo sapiens) (UniProt P57058); conditions: Compound concentration 1000.0 nM
[20] = test system: ALK tyrosine kinase receptor (Homo sapiens), Q9UM73 [C1156Y]; conditions: Compound concentration 1000.0 nM
[21] = target: Tyrosine-protein kinase JAK1 (Homo sapiens) (UniProt P23458); conditions: Compound concentration 1000.0 nM
[22] = target: Serine/threonine-protein kinase SIK1 (Homo sapiens) (UniProt P57059); conditions: Compound concentration 1000.0 nM
[23] = target: Epidermal growth factor receptor (Homo sapiens) (UniProt P00533); conditions: Compound concentration 1000.0 nM
[24] = target: Histamine H1 receptor (Homo sapiens) (UniProt P35367); conditions: Compound concentration 10.0 uM
[25] = target: Tyrosine-protein kinase ABL1 (Homo sapiens) (UniProt P00519); conditions: Compound concentration 1000.0 nM
[26] = target: Tyrosine-protein kinase ABL2 (Homo sapiens) (UniProt P42684); conditions: Compound concentration 1000.0 nM
[27] = target: Mast/stem cell growth factor receptor Kit (Homo sapiens) (UniProt P10721); conditions: Compound concentration 1000.0 nM
[28] = target: Phosphatidylinositol 4-kinase beta (Homo sapiens) (UniProt Q9UBF8); conditions: Compound concentration 1000.0 nM

Sequence of Calcium/calmodulin-dependent protein kinase kinase 1 (Homo sapiens) (Q8N5S9 whole entry, looked up): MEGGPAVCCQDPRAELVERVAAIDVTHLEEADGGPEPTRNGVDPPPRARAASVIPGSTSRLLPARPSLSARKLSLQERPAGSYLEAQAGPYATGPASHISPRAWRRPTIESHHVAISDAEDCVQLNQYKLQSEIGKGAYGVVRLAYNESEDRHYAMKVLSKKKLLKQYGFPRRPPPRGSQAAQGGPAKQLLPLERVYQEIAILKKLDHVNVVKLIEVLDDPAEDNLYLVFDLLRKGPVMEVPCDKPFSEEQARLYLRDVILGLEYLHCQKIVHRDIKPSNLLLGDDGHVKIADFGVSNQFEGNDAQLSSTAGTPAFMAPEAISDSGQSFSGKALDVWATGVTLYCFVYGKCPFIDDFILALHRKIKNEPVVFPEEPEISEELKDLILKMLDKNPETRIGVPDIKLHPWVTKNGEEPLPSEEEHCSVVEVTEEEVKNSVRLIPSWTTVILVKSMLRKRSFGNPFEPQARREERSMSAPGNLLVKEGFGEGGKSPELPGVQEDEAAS
Sequence of Tyrosine-protein kinase Lyn (Homo sapiens) (P07948 2-512 limits assumed): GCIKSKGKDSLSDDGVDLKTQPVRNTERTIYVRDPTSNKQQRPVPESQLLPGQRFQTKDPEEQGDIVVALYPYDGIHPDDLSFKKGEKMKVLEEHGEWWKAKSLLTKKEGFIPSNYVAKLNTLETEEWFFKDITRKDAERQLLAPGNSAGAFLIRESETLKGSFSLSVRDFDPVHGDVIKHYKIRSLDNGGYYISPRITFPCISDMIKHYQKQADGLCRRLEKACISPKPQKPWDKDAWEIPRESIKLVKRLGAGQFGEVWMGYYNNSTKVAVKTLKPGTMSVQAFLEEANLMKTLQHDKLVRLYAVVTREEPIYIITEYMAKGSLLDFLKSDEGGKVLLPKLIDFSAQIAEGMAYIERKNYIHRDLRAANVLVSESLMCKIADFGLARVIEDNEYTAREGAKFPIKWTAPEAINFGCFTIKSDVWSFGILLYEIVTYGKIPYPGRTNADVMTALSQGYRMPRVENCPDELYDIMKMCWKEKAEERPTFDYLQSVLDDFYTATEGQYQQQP
Sequence of Hormonally up-regulated neu tumor-associated kinase (Homo sapiens) (P57058 whole entry): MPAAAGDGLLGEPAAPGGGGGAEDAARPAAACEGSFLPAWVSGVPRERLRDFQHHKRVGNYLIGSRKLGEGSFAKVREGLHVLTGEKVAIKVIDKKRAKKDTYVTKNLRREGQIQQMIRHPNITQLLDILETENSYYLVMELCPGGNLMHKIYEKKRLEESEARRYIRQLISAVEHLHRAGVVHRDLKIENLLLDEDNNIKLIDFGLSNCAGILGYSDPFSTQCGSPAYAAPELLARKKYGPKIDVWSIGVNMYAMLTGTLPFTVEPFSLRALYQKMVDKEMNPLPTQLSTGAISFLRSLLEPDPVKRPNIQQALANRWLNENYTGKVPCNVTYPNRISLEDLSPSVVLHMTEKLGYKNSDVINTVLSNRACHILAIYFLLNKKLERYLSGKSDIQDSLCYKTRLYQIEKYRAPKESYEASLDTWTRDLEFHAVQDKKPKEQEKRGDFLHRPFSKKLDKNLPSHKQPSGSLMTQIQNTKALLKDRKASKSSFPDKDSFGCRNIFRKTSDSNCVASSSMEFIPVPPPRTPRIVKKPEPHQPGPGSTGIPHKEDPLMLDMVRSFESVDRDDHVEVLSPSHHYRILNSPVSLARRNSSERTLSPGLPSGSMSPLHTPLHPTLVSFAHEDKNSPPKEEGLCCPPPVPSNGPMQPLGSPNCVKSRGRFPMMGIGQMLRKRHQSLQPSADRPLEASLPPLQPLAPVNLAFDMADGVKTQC
Sequence of ALK tyrosine kinase receptor (Homo sapiens), Q9UM73 [C1156Y] (Q9UM73 whole entry C1156Y, looked up): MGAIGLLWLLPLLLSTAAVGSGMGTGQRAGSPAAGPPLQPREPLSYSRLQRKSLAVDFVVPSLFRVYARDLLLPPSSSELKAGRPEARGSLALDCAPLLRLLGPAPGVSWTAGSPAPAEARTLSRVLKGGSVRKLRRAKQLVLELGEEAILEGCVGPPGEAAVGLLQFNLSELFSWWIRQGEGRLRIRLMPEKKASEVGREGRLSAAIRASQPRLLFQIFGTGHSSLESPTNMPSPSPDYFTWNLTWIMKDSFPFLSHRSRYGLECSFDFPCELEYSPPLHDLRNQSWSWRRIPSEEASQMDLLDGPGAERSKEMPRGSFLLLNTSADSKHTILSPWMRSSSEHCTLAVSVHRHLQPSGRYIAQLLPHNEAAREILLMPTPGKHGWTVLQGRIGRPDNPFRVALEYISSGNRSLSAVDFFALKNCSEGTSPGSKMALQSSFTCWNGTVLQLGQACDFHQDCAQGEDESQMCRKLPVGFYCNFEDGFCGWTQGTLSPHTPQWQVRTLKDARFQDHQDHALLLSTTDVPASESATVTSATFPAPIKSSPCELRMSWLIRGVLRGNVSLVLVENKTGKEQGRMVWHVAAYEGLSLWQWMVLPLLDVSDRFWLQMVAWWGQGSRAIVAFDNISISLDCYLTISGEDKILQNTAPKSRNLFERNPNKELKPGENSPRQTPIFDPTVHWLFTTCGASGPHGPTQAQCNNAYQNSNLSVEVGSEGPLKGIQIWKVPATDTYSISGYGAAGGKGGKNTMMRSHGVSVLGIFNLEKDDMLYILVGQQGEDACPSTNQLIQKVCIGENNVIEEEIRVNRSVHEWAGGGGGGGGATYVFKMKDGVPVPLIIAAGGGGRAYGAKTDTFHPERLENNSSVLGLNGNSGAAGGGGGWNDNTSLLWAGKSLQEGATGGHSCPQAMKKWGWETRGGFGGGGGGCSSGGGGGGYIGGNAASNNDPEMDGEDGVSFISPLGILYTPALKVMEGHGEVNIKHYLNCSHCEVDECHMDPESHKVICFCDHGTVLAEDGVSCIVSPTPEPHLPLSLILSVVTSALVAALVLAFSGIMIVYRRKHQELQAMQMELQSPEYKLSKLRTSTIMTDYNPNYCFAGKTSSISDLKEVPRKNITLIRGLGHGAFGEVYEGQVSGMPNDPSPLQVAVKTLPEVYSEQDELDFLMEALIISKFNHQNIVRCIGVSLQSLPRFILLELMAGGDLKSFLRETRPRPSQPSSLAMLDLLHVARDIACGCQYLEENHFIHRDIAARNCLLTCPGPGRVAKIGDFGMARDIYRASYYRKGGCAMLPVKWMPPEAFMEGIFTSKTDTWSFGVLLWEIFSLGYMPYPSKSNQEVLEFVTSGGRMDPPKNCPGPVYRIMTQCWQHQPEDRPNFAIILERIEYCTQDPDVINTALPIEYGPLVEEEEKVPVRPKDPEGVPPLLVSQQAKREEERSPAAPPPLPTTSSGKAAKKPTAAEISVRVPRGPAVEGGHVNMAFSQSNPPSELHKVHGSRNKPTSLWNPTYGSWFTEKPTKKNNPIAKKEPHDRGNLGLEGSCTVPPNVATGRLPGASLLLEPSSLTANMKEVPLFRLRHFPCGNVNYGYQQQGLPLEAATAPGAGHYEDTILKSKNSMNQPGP
Sequence of Serine/threonine-protein kinase PAK 2 (Homo sapiens) (Q13177 whole entry): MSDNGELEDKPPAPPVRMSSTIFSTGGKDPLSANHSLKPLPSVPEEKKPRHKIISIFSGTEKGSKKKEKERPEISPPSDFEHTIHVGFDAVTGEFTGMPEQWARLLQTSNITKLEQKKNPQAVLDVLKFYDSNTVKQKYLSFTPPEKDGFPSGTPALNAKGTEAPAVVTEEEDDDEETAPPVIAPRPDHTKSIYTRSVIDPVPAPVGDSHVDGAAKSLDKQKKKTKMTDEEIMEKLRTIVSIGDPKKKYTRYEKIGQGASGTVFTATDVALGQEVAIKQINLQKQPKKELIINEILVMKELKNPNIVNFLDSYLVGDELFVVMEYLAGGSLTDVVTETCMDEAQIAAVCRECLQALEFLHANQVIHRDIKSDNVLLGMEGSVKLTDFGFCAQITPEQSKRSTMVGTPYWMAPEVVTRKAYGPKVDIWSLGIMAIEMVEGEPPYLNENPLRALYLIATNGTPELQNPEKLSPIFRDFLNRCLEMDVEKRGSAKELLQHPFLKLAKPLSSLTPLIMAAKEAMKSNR
Sequence of Tyrosine-protein kinase JAK1 (Homo sapiens) (P23458 whole entry): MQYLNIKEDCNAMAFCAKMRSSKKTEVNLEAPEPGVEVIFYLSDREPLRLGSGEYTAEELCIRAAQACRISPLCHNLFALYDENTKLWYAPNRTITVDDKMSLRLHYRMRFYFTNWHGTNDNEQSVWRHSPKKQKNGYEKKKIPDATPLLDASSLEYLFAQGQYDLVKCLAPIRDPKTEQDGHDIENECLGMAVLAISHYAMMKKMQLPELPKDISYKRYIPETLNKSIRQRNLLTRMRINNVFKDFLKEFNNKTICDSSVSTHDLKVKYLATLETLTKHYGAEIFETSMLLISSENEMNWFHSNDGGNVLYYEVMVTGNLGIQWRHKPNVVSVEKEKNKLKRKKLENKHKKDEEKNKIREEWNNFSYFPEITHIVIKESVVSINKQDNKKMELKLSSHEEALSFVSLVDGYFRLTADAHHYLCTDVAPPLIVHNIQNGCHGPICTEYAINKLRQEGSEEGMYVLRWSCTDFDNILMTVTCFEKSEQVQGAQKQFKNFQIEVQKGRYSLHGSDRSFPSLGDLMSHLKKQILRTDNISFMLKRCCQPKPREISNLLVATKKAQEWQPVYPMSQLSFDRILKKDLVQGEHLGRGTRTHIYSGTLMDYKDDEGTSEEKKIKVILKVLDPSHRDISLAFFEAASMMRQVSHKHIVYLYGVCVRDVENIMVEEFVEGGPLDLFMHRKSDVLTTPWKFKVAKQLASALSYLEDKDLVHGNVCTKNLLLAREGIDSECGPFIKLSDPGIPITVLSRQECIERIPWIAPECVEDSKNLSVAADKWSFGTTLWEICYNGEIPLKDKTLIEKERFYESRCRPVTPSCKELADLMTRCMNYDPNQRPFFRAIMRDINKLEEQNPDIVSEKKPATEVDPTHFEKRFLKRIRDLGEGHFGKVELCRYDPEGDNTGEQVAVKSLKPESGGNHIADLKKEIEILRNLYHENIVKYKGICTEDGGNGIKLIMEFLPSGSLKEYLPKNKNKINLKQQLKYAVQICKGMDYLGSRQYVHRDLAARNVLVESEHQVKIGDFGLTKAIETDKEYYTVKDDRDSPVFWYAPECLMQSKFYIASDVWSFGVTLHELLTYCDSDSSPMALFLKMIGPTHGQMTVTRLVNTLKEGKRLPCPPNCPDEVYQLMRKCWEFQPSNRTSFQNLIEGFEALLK

| Structure (SMILES) | residual activity [1] [%] | residual activity [2] [%] | residual activity [3] [%] | residual activity [4] [%] | residual activity [5] [%] | inhibition [6] [%] | residual activity [7] [%] | residual activity [8] [%] | residual activity [9] [%] | IC50 (BT-474) | residual activity [10] [%] | inhibition [11] [%] | residual activity [12] [%] | residual activity [13] [%] | residual activity [14] [%] | residual activity [15] [%] | residual activity [16] [%] | residual activity [17] [%] | residual activity [18] [%] | residual activity [19] [%] | further results |
| --- | --- | --- | --- | --- | --- | --- | --- | --- | --- | --- | --- | --- | --- | --- | --- | --- | --- | --- | --- | --- | --- |
| Cc1nc(C2CCN(C(=O)c3ccc(OC(F)(F)F)cc3N)CC2)c2ncc(N3CCN(C)CC3)cc2n1 [BAY-693] | 98 | 86 | 93 | 100 | 64 | -0.78 | 93 | 98 | 91 | 27.6 µM (not active) | 100 | -1.66 | 100 | 100 | 100 | 100 | 100 | 100 | 100 | 100 | residual activity [20]: 100%; residual activity [21]: 90%; residual activity [22]: 100%; residual activity [23]: 86%; inhibition [24]: 4.99%; residual activity [25]: 92%; residual activity [26]: 93%; residual activity [27]: 76%; residual activity [28]: 84% |
| CN1CCN(c2cnc3c(C4CCN(C(=O)c5ccc(OC(F)(F)F)cc5N)CC4)ncnc3c2)CC1 [BAY-885] | 97 | 49 | 100 | 100 | 100 | -9.57 | 100 | 91 | 100 | > 30 µM (not active) | 100 | 13.2 | 100 | 100 | 75 | 100 | 100 | 100 | 100 | 95 | residual activity [20]: 100%; residual activity [21]: 90%; residual activity [22]: 92%; residual activity [23]: 99%; inhibition [24]: 14.6%; residual activity [25]: 91%; residual activity [26]: 100%; residual activity [27]: 85%; residual activity [28]: 96% |
